# According to patent EP0231151A2, “Immunosuppressant agents” (priority 1986, dated 1987):
# Like-named read-outs stand apart in the source and are kept apart here.
# Experiments:
# [1] = target: 5-HT sensitive adenylate cyclase; assay: Activation of 5-HT sensitive adenylate cyclase of the liver fluke (method of Markstein); assay type: biochemical; details: adenylate cyclase stimulated by serotonin
# Source text: A group of compounds comprises compounds which are D₂ agonists without any antagonistic activity. Another group of compounds includes those compounds which are serotonin agonists, e.g. as indicated in standard in vitro binding tests and by activation of 5-HT sensitive adenylate cyclase of the liver fluke according to the method of R.Markstein, Neurochemical effects of some ergot derivatives: A basis for their antiparkinson actions. J.Neural transm 51:39, (1981).
# Examples of such compounds include compound C and pergolide. Compound C, pergolide and 5-HT have efficacies of 90,80 and 100 respectively and pD₂ [log EC₅₀] of 6.9, 6.9 and 7.7 respectively in this test on adenylate cyclase stimulated by serotonin.
# [2] = system: basal serum prolactin levels; assay: Lowering basal serum prolactin levels in the male rat (prolactin secretion inhibition); assay type: in vivo; details: read-out: ID50 after 4 hours
# Source text: Many of the above mentioned compounds are published as prolactin secretion inhibitors, some of which are extremely potent and have long lasting activity. The potency of the compounds as prolactin secretion inhibitors can be determined in standard tests, e.g. by lowering basal serum prolactin levels in the male rat.
# Results with representative compounds include:-
# adjuvant arthritis = assay: Freund's adjuvant arthritis in the rat, hind limb thickness; assay type: in vivo; details: 0.1 mg/kg/day s.c. osmotic pump
# Protocol: One test model is a rodent model of developing autoimmune adjuvant arthritis. An inhibition of the development of adjuvant arthritis is observed.
# In one variante, Myobacterium Butyricum purchased from Difco Laboratories, Detroit, Michigan, was prepared in an emulsion with paraffin subliquidium PHHVI (Siegried Zofingen, Switzerland) at a concentration of 6 mg/ml. During ether anaesthesia a volume of 0.1 ml of this emulsion was injected with a 21 g 1-1/2 inch needle intracutaneously at the base of the tail of male Sprague-Dawley rats (ca 150-175 g). Arthritis occurred in 95% to 100% of the hind legs in the positive control animals. The hind limb (mid-tibial region) thickness was measured with a linear guage (Mitutoyo) coupled to an electronic digital readout (Mitutoyo).
# 100% of a control group developed adjuvant arthritis. The compounds of the invention are administered by means of a sub-cutaneously sustained osmotic pump, over 7 days or 14 days to groups of 5 animals. Progression of the arthritis and the inhibiting effect of a representative compound, compound B, at 0.1 mg/kg/day are as follows:-
# [3] = Acute toxicity (LD50) in the mouse; details: in vivo; for LD50 at 168 h: iv, over 7 days, read-out: acute LD₅₀ (mouse) i.v.; for LD50 at 336 h: po, over 14 days, read-out: acute LD₅₀ (mouse) p.o.
# Source text: (§1) Toxicity data for some of the comounds of the invention have been published. Such data may be determined by routine experimentation. TOXICITY DATA for representative compounds NTEL = No toxic effect level.
# [4] = No toxic effect level (NTEL), repeated oral dosing in rats; details: rat, in vivo, p.o.
# Source text: as §1
# [5] = No toxic effect level (NTEL) / tolerability, repeated oral dosing in dogs; details: dog, in vivo, no toxic effect level, p.o.
# Source text: as §1
# [6] = system: splenic lymphocytes forming lytic antibodies to the SRBC; assay: Antibody producing cell development in the mouse (PFC test), plaque forming cells to SRBC; assay type: in vivo
# Protocol: These methods permit the quantitation of the number of splenic lymphocytes forming lytic antibodies to the SRBC and the distinction between IgM and IgG producing cells.
# The intravenous injection of SRBC (5 x 10⁷) in 0.2 ml i.v. served as the primary immunization antigen source in the mouse studies. The mice in these studies were female C57 black of ca 20 grams body weight. All animals were pretreated with the respective compounds for one day prior to the SRBC treatment and daily treated thereafter at 11.00 h for a total of 6 days. The spleens were removed for the determination of PFC numbers to the SRBC antigen.
# The spleen cells were suspended in Hepes-buffered Balanced Salt Solution (HBSS), washed once, and resuspended in a volume adjusted according to the expected number of plaque forming cells. The direct quantitiation of IgM-PFC was performed by plaquing 0.1 ml of the diluted splenic cells with 0.025 ml of SRBC (30%), 0.3 ml Agar (0.5% in HBSS), and 0.025 ml complement (guinea pig serum) and plated on Petri dishes. An indirect method of IgG-PFC quantitation was performed with a monoclonal antibody to the IgM (1:4 dilution) plus an anti-gama polyspecific antiserum (1:800) to permit complement fixation. The splenic lymphocytes from each mouse spleen were plated to quantitate IgM- and IgG-PFC in duplicate. All plates were incubated for 4 hours at 37°C and then stored overnight in humidified chambers at 4°C. Plaques were counted by hand with the use of a plaque counter.
# [7] = system: immuno-responsiveness of effector lymphocytes to histoincompatible (allogenic) lymphocytes; assay: Mixed lymphocyte reaction test in mice, 2nd variant (both strains treated, ex vivo 3H-thymidine incorporation); details: at least 7 days
# Protocol: The compounds furthermore inhibit the immuno-responsiveness of effector lymphocytes to histoincompatible (allogenic) lymphocytes in a variante of the above two way MLR (mixed lymphocyte reaction) test.
# Mice of two histo-incompatible strains (Balb/c and CBA) (6-8 weeks old) were once daily treated s.c. with a compound of the invention for at least 7 days. The spleens are removed 3 hours after the last drug administration. The MLR test is effected with 0.5 x 10⁶ spleen cells from Balb/c mice and 0.5 x 10⁶ spleen cells from CBA mice the latter having been irradiated with 2000 rad. The spleen cells of the Balb-c mice are incubated with the allogenic CBA-spleen cells for 4 days. Radioactive thymidine is added and after 16 hours the incorporation of ³H-thymidine in the DNA of the mouse spleen cells was measured.
# [8] = system: Local graft versus host (GvH); assay: Local graft versus host (GvH) reaction in the rat, lymph node weight; assay type: in vivo; details: for Weight lymph node: control ca 33 mg; for Percentage Difference: versus control ca 33 mg
# Protocol: Spleen cells (ca 1 x 10⁷) are taken from 6 week old Wistar/Furth/(W/F) rats and are injected into the left hind paw of female (F 344 x WF) F1 rats weighing about 100 g. The rats had been treated daily with the compound from 7 days before the injection and are treated daily for 3 days thereafter. The difference in weight between the left and right lymph nodes is taken as the parameter for evaluating the reaction.
# [9] = system: ornithine decarboxylase (ODC); assay: Biosynthetic rate in the rat: ornithine decarboxylase activity in tissues after Complete Freund's adjuvant; assay type: in vivo; details: Freund's adjuvant treated rats
# Protocol: The marker used in this study to determine the biosynthetic rate of the lymphoid and endocrine tissues was ornithine decarboxylase (ODC). ODC, the rate-limiting enzyme in polyamine biosynthesis, serves as a early marker of G₁ cell cycle progression of proliferating tissues and increased biosynthesis in secretory tissues, in response to trophic or stimulatory substances. There is a peak activity of ODC subsequent to stimulation in vivo within 4 hours - making this enzyme a useful intracellular marker for understanding the relationship between agonists and target tissue response. The ODC activity of lymphoid tissues appears to relate to a functional response to the immune system.
# In a typical test method KFM male rats (150 - 175 g) were treated with the compound of the invention one day prior to the administration of Complete Freund's adjuvant in analogous manner to that described above. Administration of the compound was repeated once time per day afterwards. Two days later the animals were decapitated, the tissues removed and frozen in liquid nitrogen. The ODC activities (pmol/30 min./mg protein) are measured. The ODC activity was determined by measuring the liberation of 14CO₂ from L-(1-14C)-ornithine as described by Snyder et al Proc.Natl.Acad.Sci.60:1420, 1968.
smiles,measurement,setting,value
"CCCN1C[C@H](CSC)C[C@@H]2c3cccc4[nH]cc(c34)C[C@H]21 [pergolide, 6-n-propyl-8α-methylmercaptomethyl-ergoline-I]",pD₂ [log EC₅₀],[1],6.9
"CN1C[C@@H](NS(=O)(=O)N(C)C)C[C@@H]2c3cccc4c3c(cn4C)C[C@H]21 [Compound B, 1,6-dimethyl-8α-(N,N-dimethylsulphamoylamino)-ergoline-I]",ED50,"[2]; Rattus norvegicus, 4 h",0.003 mg/kg
same,Hind Limb Thickness (mm),"adjuvant arthritis; Day 0, 7 days dosing",6.1 mm
same,Hind Limb Thickness (mm),"adjuvant arthritis; Day 0, 14 days dosing",6.0 mm
same,Hind Limb Thickness (mm),"adjuvant arthritis; Day 3, 7 days dosing",6.2 mm
same,Hind Limb Thickness (mm),"adjuvant arthritis; Day 3, 14 days dosing",6.2 mm
same,Hind Limb Thickness (mm),"adjuvant arthritis; Day 6, 7 days dosing",6.2 mm
same,Hind Limb Thickness (mm),"adjuvant arthritis; Day 6, 14 days dosing",6.2 mm
same,Hind Limb Thickness (mm),"adjuvant arthritis; Day 9, 7 days dosing",6.5 mm
same,Hind Limb Thickness (mm),"adjuvant arthritis; Day 9, 14 days dosing",6.7 mm
same,Hind Limb Thickness (mm),"adjuvant arthritis; Day 12, 7 days dosing",6.9 mm
same,Hind Limb Thickness (mm),"adjuvant arthritis; Day 12, 14 days dosing",7.7 mm
same,Hind Limb Thickness (mm),"adjuvant arthritis; Day 15, 7 days dosing",7.6 mm
same,Hind Limb Thickness (mm),"adjuvant arthritis; Day 15, 14 days dosing",7.8 mm
same,Hind Limb Thickness (mm),"adjuvant arthritis; Day 18, 7 days dosing",7.9 mm
same,Hind Limb Thickness (mm),"adjuvant arthritis; Day 18, 14 days dosing",7.9 mm
same,Hind Limb Thickness (mm),"adjuvant arthritis; Day 21, 7 days dosing",8.2 mm
same,Hind Limb Thickness (mm),"adjuvant arthritis; Day 21, 14 days dosing",8.2 mm
"CCN(CC)S(=O)(=O)N[C@H]1C[C@@H]2c3cccc4c3c(cn4CC)C[C@H]2N(C)C1 [Compound D, N,N-diethyl-Nʹ-[(8α)-1-ethyl-6-methyl-ergolin-8-yl]-sulfamide]",LD50 at 168 h,[3],44 mg/kg
same,LD50 at 336 h,[3],992 mg/kg
same,NOAEL at 4368 h,[4]; 26 weeks,5 to 17 mg/kg/day
same,NOAEL at 4368 h,[5]; 26 weeks,0.3 mg/kg/day
"CCCN1C[C@@H](NS(=O)(=O)N(CC)CC)C[C@@H]2c3cccc4[nH]cc(c34)C[C@H]21 [Compound C, 6-n-propyl-8α-(N,N,-diethylsulphamoylamino)-ergoline-I]",ED50,"[2]; lowering basal serum prolactin levels, male rat, after 4 hours",0.001 mg/kg
same,pD₂ [log EC₅₀],[1],6.9
same,percent change from control at 0.01 mg/kg/day,"[6]; Mus musculus, Splenic lymphocyte, po, Test B, 0.01 mg/kg/day p.o., read-out: IgM % of control",-49%
same,percent change from control at 0.1 mg/kg/day,"[6]; Mus musculus, Splenic lymphocyte, po, Test B, 0.1 mg/kg/day p.o., read-out: IgM % of control",-26%
same,percent change from control at 1 mg/kg/day,"[6]; Mus musculus, Splenic lymphocyte, po, Test B, 1 mg/kg/day p.o., read-out: IgM % of control",-1%
same,IgM (PFC x 10^3 per spleen),"[6]; Test B, 0.01 mg/kg/day p.o.",167.2 PFC x 10^3 per spleen
same,IgM (PFC x 10^3 per spleen),"[6]; Test B, 0.1 mg/kg/day p.o.",244.4 PFC x 10^3 per spleen
same,IgM (PFC x 10^3 per spleen),"[6]; Test B, 1 mg/kg/day p.o.",327.0 PFC x 10^3 per spleen
same,reduction of IgM titre,[6]; combination: Cyclosporine 60 mg/kg/day p.o. and Compound C 0.1 mg/kg/day p.o.,63%
same,Change from control,[7]; 0.05 mg/kg s.c. once daily,-71%
same,Change from control,[7]; 0.5 mg/kg s.c. once daily,-50%
same,Change from control,[7]; 5 mg/kg s.c. once daily,-20%
same,Weight lymph node,[8]; 0.001 mg/kg/day,24 mg
same,Percentage Difference,[8]; 0.001 mg/kg/day,-28%
same,Weight lymph node,[8]; 0.01 mg/kg/day,19 mg
same,Percentage Difference,[8]; 0.01 mg/kg/day,-42%
same,Weight lymph node,[8]; 0.1 mg/kg/day,18 mg
same,Percentage Difference,[8]; 0.1 mg/kg/day,-45%
same,"ODC activities, Adrenal Medulla",[9]; 0.01 mg/kg,17.10 pmol/30 min./mg protein
same,"ODC activities, Anterior Pituitary",[9]; 0.01 mg/kg,32.60 pmol/30 min./mg protein
same,"ODC activities, Bone Marrow",[9]; 0.01 mg/kg,17.40 pmol/30 min./mg protein
same,"ODC activities, Lymph Nodes",[9]; 0.01 mg/kg,43.10 pmol/30 min./mg protein
same,"ODC activities, Spleen",[9]; 0.01 mg/kg,12.14 pmol/30 min./mg protein
same,"ODC activities, Thymus",[9]; 0.01 mg/kg,98.80 pmol/30 min./mg protein
same,"ODC activities, Adrenal Medulla",[9]; 0.1 mg/kg,180.0 pmol/30 min./mg protein
same,"ODC activities, Anterior Pituitary",[9]; 0.1 mg/kg,33.70 pmol/30 min./mg protein
same,"ODC activities, Bone Marrow",[9]; 0.1 mg/kg,45.80 pmol/30 min./mg protein
same,"ODC activities, Lymph Nodes",[9]; 0.1 mg/kg,107.30 pmol/30 min./mg protein
same,"ODC activities, Spleen",[9]; 0.1 mg/kg,34.62 pmol/30 min./mg protein
same,"ODC activities, Thymus",[9]; 0.1 mg/kg,171.40 pmol/30 min./mg protein
same,"ODC activities, Adrenal Medulla",[9]; 0.5 mg/kg,95.0 pmol/30 min./mg protein
same,"ODC activities, Anterior Pituitary",[9]; 0.5 mg/kg,41.20 pmol/30 min./mg protein
same,"ODC activities, Bone Marrow",[9]; 0.5 mg/kg,43.40 pmol/30 min./mg protein
same,"ODC activities, Lymph Nodes",[9]; 0.5 mg/kg,103.90 pmol/30 min./mg protein
same,"ODC activities, Spleen",[9]; 0.5 mg/kg,37.96 pmol/30 min./mg protein
same,"ODC activities, Thymus",[9]; 0.5 mg/kg,177.0 pmol/30 min./mg protein
same,LD50 at 168 h,[3],45 mg/kg
same,LD50 at 336 h,[3],69 mg/kg
same,NOAEL at 672 h,[4]; 4 weeks,0.19 mg/kg/day
same,NOAEL at 672 h,"[5]; 4 weeks, read-out: NTEL (4 weeks) dogs",0.2 mg/kg/day
NCCc1c[nH]c2ccc(O)cc12 [Compound 5-HT],pD₂ [log EC₅₀],[1],7.7
same,efficacies,[1]; 5-HT = 100,100
